Laboratory results from the NIST ThermoML archive (doi:10.1021/je100707s).
“And” between values parts separate entries of the source, which are not always exact repeats. Identical values can stand only once. ± gives the expanded uncertainty stated by the source.

Settings: Gas, Bellows volumetry

F/C=C/C(F)(F)F [trans-1,3,3,3-tetrafluoropropene]
mass density
Settings	350 K	360 K
806 kPa	–	34.26 ± 0.42 kg/m3
822 kPa	–	35.02 ± 0.43 kg/m3
838 kPa	–	35.83 ± 0.45 kg/m3
858 kPa	–	36.81 ± 0.45 kg/m3
872 kPa	–	37.5 ± 0.46 kg/m3
893 kPa	–	38.54 ± 0.46 kg/m3
914 kPa	–	39.59 ± 0.48 kg/m3
934 kPa	–	40.62 ± 0.5 kg/m3
957 kPa	–	41.79 ± 0.48 kg/m3
980 kPa	–	42.97 ± 0.52 kg/m3
996 kPa	–	43.76 ± 0.51 kg/m3
1013 kPa	–	44.41 ± 0.42 kg/m3
1032 kPa	–	45.38 ± 0.45 kg/m3
1050 kPa	48.68 ± 0.48 kg/m3	–
1053 kPa	–	46.47 ± 0.45 kg/m3
1073 kPa	49.96 ± 0.5 kg/m3	–
1076 kPa	–	47.64 ± 0.47 kg/m3
1081 kPa	50.42 ± 0.5 kg/m3	–
1093 kPa	–	48.62 ± 0.47 kg/m3
1097 kPa	51.34 ± 0.49 kg/m3	–
1118 kPa	52.57 ± 0.52 kg/m3	–
1123 kPa	–	50.21 ± 0.49 kg/m3
1142 kPa	–	51.25 ± 0.49 kg/m3
1146 kPa	54.28 ± 0.54 kg/m3	–
1164 kPa	–	52.52 ± 0.51 kg/m3
1166 kPa	55.47 ± 0.54 kg/m3	–
1184 kPa	56.54 ± 0.55 kg/m3	–
1190 kPa	–	53.97 ± 0.51 kg/m3
1212 kPa	58.14 ± 0.47 kg/m3	–
1217 kPa	–	55.45 ± 0.53 kg/m3
1228 kPa	59.18 ± 0.46 kg/m3	–
1246 kPa	–	56.97 ± 0.54 kg/m3
1249 kPa	–	57.15 ± 0.54 kg/m3
1253 kPa	60.74 ± 0.47 kg/m3	–
1263 kPa	–	57.94 ± 0.45 kg/m3
1281 kPa	62.46 ± 0.5 kg/m3	–
1285 kPa	–	59.28 ± 0.46 kg/m3
1299 kPa	63.7 ± 0.5 kg/m3	–
1310 kPa	–	60.71 ± 0.42 kg/m3
1325 kPa	65.31 ± 0.52 kg/m3	–
1335 kPa	–	62.17 ± 0.48 kg/m3
1352 kPa	67.13 ± 0.54 kg/m3	–
1359 kPa	–	63.66 ± 0.48 kg/m3
1374 kPa	68.68 ± 0.54 kg/m3	–
1376 kPa	68.87 ± 0.49 kg/m3	–
1386 kPa	–	65.23 ± 0.5 kg/m3
1400 kPa	70.45 ± 0.48 kg/m3	–
1403 kPa	70.69 ± 0.56 kg/m3	–
1414 kPa	–	66.98 ± 0.52 kg/m3
1422 kPa	72.01 ± 0.49 kg/m3	–
1434 kPa	72.82 ± 0.59 kg/m3	–
1438 kPa	–	68.45 ± 0.53 kg/m3
1441 kPa	–	68.77 ± 0.47 kg/m3
1451 kPa	74.02 ± 0.46 kg/m3	–
1460 kPa	74.47 ± 0.61 kg/m3	–
1466 kPa	–	70.29 ± 0.54 kg/m3 and 70.3 ± 0.47 kg/m3
1474 kPa	75.65 ± 0.52 kg/m3	–
1493 kPa	–	72.04 ± 0.49 kg/m3
1499 kPa	77.45 ± 0.53 kg/m3	–
1502 kPa	–	72.6 ± 0.56 kg/m3
1523 kPa	–	73.94 ± 0.48 kg/m3
1526 kPa	79.54 ± 0.53 kg/m3	–
1535 kPa	–	74.54 ± 0.57 kg/m3
1545 kPa	–	75.43 ± 0.52 kg/m3
1552 kPa	81.57 ± 0.57 kg/m3	–
1580 kPa	83.73 ± 0.59 kg/m3	77.76 ± 0.53 kg/m3
1607 kPa	–	79.57 ± 0.54 kg/m3
1611 kPa	86.28 ± 0.58 kg/m3	–
1634 kPa	–	81.53 ± 0.56 kg/m3
1645 kPa	88.62 ± 0.5 kg/m3	–
1665 kPa	–	83.71 ± 0.58 kg/m3
1667 kPa	90.44 ± 0.54 kg/m3	–
1692 kPa	92.58 ± 0.54 kg/m3	–
1695 kPa	–	85.89 ± 0.58 kg/m3
1722 kPa	95.16 ± 0.56 kg/m3	–
1725 kPa	–	87.95 ± 0.58 kg/m3
1737 kPa	–	88.54 ± 0.49 kg/m3
1748 kPa	97.5 ± 0.59 kg/m3	–
1760 kPa	–	90.28 ± 0.52 kg/m3
1773 kPa	99.83 ± 0.77 kg/m3	–
1787 kPa	–	92.36 ± 0.52 kg/m3
1798 kPa	102.24 ± 0.62 kg/m3	–
1815 kPa	–	94.55 ± 0.54 kg/m3
1822 kPa	104.65 ± 0.65 kg/m3	–
1850 kPa	107.61 ± 0.69 kg/m3	97.28 ± 0.56 kg/m3
1869 kPa	109.92 ± 0.71 kg/m3	–
1886 kPa	–	100.24 ± 0.59 kg/m3
1926 kPa	–	103.58 ± 0.61 kg/m3
1936 kPa	–	104.54 ± 0.62 kg/m3
1964 kPa	–	107.1 ± 0.62 kg/m3
1999 kPa	–	110.25 ± 0.64 kg/m3
2157 kPa	–	125.99 ± 0.63 kg/m3
2180 kPa	–	128.5 ± 0.65 kg/m3
2212 kPa	–	132.17 ± 0.66 kg/m3
2224 kPa	–	133.7 ± 0.69 kg/m3
2247 kPa	–	136.47 ± 0.7 kg/m3
2279 kPa	–	140.52 ± 0.73 kg/m3
2287 kPa	–	141.76 ± 0.78 kg/m3
2300 kPa	–	143.52 ± 0.76 kg/m3
